Experimental data from patent US20070155673A1, “USE OF BVDU FOR INHIBITING THE GROWTH OF HYPERPROLIFERATIVE CELLS” (Celmed Oncology (USA), Inc., priority 1999, published 2007).
Each block holds one molecule with its values, some of them ahead of it.

Assays:
[1] = tested on: H630 R10; assay: alamarBlue cytotoxicity assay; assay type: cell-based; conditions: for IC50: alamarBlue, drug exposure 120 hours, 5-FU resistant colon tumor cell line
Protocol: (§1) alamarBlue cytotoxicity assay Tumor cells growing exponentially were transferred to 384 well flat bottom tissue culture plates. H630 R10 were plated at a density of 500 cells per well and MCF7 TDX at 250 cells/well in 25 μL of complete medium (RPMI 1640+10% fetal bovine serum+antibiotics/antimyotics). After 24 hours (day 0), 25 μL of complete medium containing the compounds (NB1011 or BVdU) over the dose range of 10^−3 to 10^−10 M were added in triplicate. Drug exposure time was 120 hours (day 5), after which growth inhibition was assayed. The redox indicator alamarBlue was added to each well at 10% (v/v). After 1-hour incubation at room temperature, fluorescence was monitored at 536 nm excitation and 595 nm emission. Concentration versus relative fluorescence units (RFU) was plotted, and sigmoid curves were fit using the Hill equation. IC50, indicated by the inflection point of the curve, is the concentration at which growth is inhibited by 50%.
(§2) H630 R10 is a colon cancer tumor cell line selected for resistance to 5-FU, and overexpresses thymidylate synthase protein approximately 20-fold. MCF7 TDX is a breast tumor cell line selected with Tomudex, and overexpresses thymidylate synthase to approximately the same extent.

[2] = tested on: MCF7 TDX; assay: alamarBlue cytotoxicity assay; assay type: cell-based; conditions: for IC50: alamarBlue
Protocol: as §1, §2

[3] = tested on: CCD18co; assay: Cyquant and crystal violet cytotoxicity; assay type: cell-based; conditions: for IC50: CCD18co, normal colon epithelium, 72 hour incubation
Protocol: (§3) Cvquant and Crystal Violet Cytotoxicity Exponentially growing cells were transferred at a density of 1.0-4.0×10^3 cells per well to a 96-well tissue culture plate in growth medium (RPMI1640+10% FBS+antibiotics). Cells were allowed to attach for 24 hours in standard culture conditions (37° C., 5% CO2, 95% humidity). Experimental compounds were then applied in duplicate half log serial dilutions. After additional 72 hour incubation, surviving cells were stained with crystal violet (adherent cells) or Cyquant (semi or non—adherent cells). Absorbence or fluorescence, respectively, was monitored. IC50 values were derived from sigmoid curves fit according to the Hill inhibitory Emax model.
(§4) The selectivity of a given antitumor agent can be assessed by comparing the IC50 for a tumor cell line to the IC50 of a normal cell strain growing under the same conditions, determined and Cyquant staining for non-adherent cells, and crystal violet staining for adherent cells. The selectivity is given here as the ratio of normal cell IC50 to tumor cell IC50. In this case, normal cell IC50 is defined as the average of the value for CCD18co and Det551 to allow for direct comparison of the established cancer drug 5-FU with BVdU.

[4] = tested on: Det 551; assay: Cyquant and crystal violet cytotoxicity; assay type: cell-based; conditions: for IC50: Det 551, normal embryonic skin, 72 hour incubation
Protocol: as §3, §4

[5] = tested on: H630-R10; assay: Cyquant and crystal violet cytotoxicity; assay type: cell-based; conditions: for IC50: H630-R10, tumor - colon, 5-FU resistant, high TS, 72 hour incubation; for normal/tumor IC50 ratio: normal IC50 = average of CCD18co and Det551
Protocol: as §3, §4

[6] = tested on: MCF7 TDX; assay: Cyquant and crystal violet cytotoxicity; assay type: cell-based; conditions: for IC50: tumor - breast, TDX resistant, high TS, 72 hour incubation; for normal/tumor IC50 ratio: normal IC50 = average of CCD18co and Det551
Protocol: as §3, §4

[7] = tested on: MCF7; assay: Cyquant and crystal violet cytotoxicity; assay type: cell-based; conditions: for IC50: MCF7, tumor - breast, parental control, 72 hour incubation; for normal/tumor IC50 ratio: normal IC50 = average of CCD18co and Det551
Protocol: as §3, §4

[8] = tested on: SKBR3 #52; assay: Cyquant and crystal violet cytotoxicity; assay type: cell-based; conditions: for IC50: SKBR3 #52, tumor - breast, high TS transfectant, 72 hour incubation; for normal/tumor IC50 ratio: normal IC50 = average of CCD18co and Det551
Protocol: as §3, §4

[9] = tested on: SKBR3 V; assay: Cyquant and crystal violet cytotoxicity; assay type: cell-based; conditions: vector control, low TS, 72 hour incubation
Protocol: as §3, §4

[10] = tested on: SW527P; assay: Cyquant and crystal violet cytotoxicity; assay type: cell-based; conditions: tumor - breast, parental control, 72 hour incubation
Protocol: as §3, §4

[11] = tested on: SW527TDX; assay: Cyquant and crystal violet cytotoxicity; assay type: cell-based; conditions: for normal/tumor IC50 ratio: normal IC50 = average of CCD18co and Det551; for IC50: tumor - breast, TDX resistant, high TS, 72 hour incubation
Protocol: as §3, §4

[12] = tested on: TS HT1080 #12; assay: Cyquant and crystal violet cytotoxicity; assay type: cell-based, human; conditions: for IC50: TS HT1080 #12, tumor - fibrosarcoma, high TS transfectant, 72 hour incubation; for normal/tumor IC50 ratio: normal IC50 = average of CCD18co and Det551
Protocol: as §3
Cell transfection. HT1080 cells were grown in RPMI1640 medium supplemented with 10% FBS, and transfected with TS expression vector. 48 hours later, transfected cells were trypsinized and replated in culture medium containing 750 μg/ml G418. After selection with G418 for two weeks, surviving cells were cloned. Clones with different TS levels were selected based on Western blot analysis, and expanded into cell lines. The stable HT1080 cells transfected with pcDNA3.1(−) only were used as control.
as §4

[13] = tested on: PC HT1080; assay: Sensitivity of thymidine kinase transfected HT1080 cell lines to BVdU; assay type: cell-based; conditions: Homo sapiens, HT-1080; PC HT1080, TK protein level 100 units
Description: (§5) Cell lines that overexpress human thymidine kinase (TK) are also more sensitive to BVdU, providing another criterion for identification of tumor susceptibility to BVdU.

[14] = tested on: TKC HT1080 #22; assay: as above; assay type: cell-based; conditions: Homo sapiens, HT-1080; TKC HT1080 #22, TK protein level 400 units
Description: as §5

[15] = tested on: TKC HT1080 #5; assay: as above; assay type: cell-based; conditions: Homo sapiens, HT-1080; TKC HT1080 #5, TK protein level 200 units
Description: as §5

[16] = tested on: H630 R10; conditions: previously shown; cited from earlier work

- IC50 [13]: 303 µM
- IC50 [14]: 162 µM
- IC50 [15]: 275 µM
Structure (SMILES): O=c1[nH]c(=O)n([C@H]2C[C@H](O)[C@@H](CO)O2)cc1/C=C/Br [BVdU, (E)-5-(2-bromovinyl)-2′-deoxyuridine]
- fold less active than NB1011 ([1]; H630R10 cells, from IC50): ~6 fold
- IC50 ([1]; Homo sapiens, NCI-H630): 303 µM
- IC50 ([2]; Homo sapiens, MCF7, Tomudex resistant breast cancer cell line): 0.005 µM
- IC50 ([2]; Homo sapiens, MCF7, drug exposure 120 hours, Tomudex resistant breast tumor cell line): 0.005 µM
- fold more active than NB1011 ([2]; MCF7 TDX cells, from IC50): ~25 fold
- IC50 ([3]; Homo sapiens, CCD-18Co): 4820 ± 128 µM
- anti-proliferative effect (in words) ([3]; normal cell strain representing colon, even high concentrations): not affected
- IC50 [4]: 2190 ± 682 µM
- anti-proliferative effect (in words) ([4]; normal cell strain representing skin, even high concentrations): not affected
- times the 5-FU normal/tumor ratio ([5]; H630-R10): 42 times
- IC50 [5]: 561 ± 157 µM
- normal/tumor IC50 ratio ([5]; H630-R10): 6.3
- times the 5-FU normal/tumor ratio [6]: 18,000 times
- IC50 ([6]; Homo sapiens): 0.6 ± 0.5 µM
- normal/tumor IC50 ratio [6]: 5847
- IC50 ([7]; Homo sapiens): 1250 µM
- selectivity relative to 5-FU ([7]; MCF7): more than ten times as selective as 5-FU
- normal/tumor IC50 ratio ([7]; MCF7): 2.8
- IC50 ([8]; Homo sapiens, SK-BR-3): 8.3 µM
- times the 5-FU normal/tumor ratio ([8]; SKBR3 #52): 2,000 times
- normal/tumor IC50 ratio ([8]; SKBR3 #52): 423
- IC50 ([9]; Homo sapiens, SK-BR-3, tumor - breast): > 1000 µM
- IC50 [10]: > 1000 µM
- times the 5-FU normal/tumor ratio [11]: 5,000 times
- normal/tumor IC50 ratio [11]: 540
- IC50 [11]: 6.5 µM
- IC50 ([12]; Homo sapiens, HT-1080): 5.7 ± 1.8 µM
- times the 5-FU normal/tumor ratio ([12]; TS HT1080 #12): 961 times
- normal/tumor IC50 ratio ([12]; TS HT1080 #12): 615
- sensitivity of H630 R10 (in words) [16]: insensitive

Structure (SMILES): C[C@H](NP(=O)(OC[C@H]1O[C@@H](n2cc(/C=C/Br)c(=O)[nH]c2=O)C[C@@H]1O)Oc1ccccc1)C(=O)O (stereo partly drawn) [NB1011, reference compound]
- IC50 [1]: 57 µM
- IC50 ([2]; drug exposure 120 hours, Tomudex resistant breast tumor cell line): 0.13 µM

Structure (SMILES): O=c1[nH]cc(F)c(=O)[nH]1 [5-FU, reference compound]
- IC50 [3]: 1.4 ± 0.4 µM
- IC50 [4]: 3.1 ± 0.5 µM
- IC50 [5]: 143 ± 5.9 µM
- normal/tumor IC50 ratio ([5]; H630-R10): 0.15
- normal/tumor IC50 ratio [6]: 0.33
- IC50 [6]: 6.7 ± 2 µM
- IC50 [7]: 8.8 ± 5.9 µM
- normal/tumor IC50 ratio ([7]; MCF7): 0.25
- IC50 [8]: 9.1 ± 1.6 µM
- normal/tumor IC50 ratio ([8]; SKBR3 #52): 0.24
- IC50 ([9]; tumor - breast): 7.4 ± 2.4 µM
- IC50 [10]: 9.1 ± 1.3 µM
- normal/tumor IC50 ratio [11]: 0.11
- IC50 [11]: 20.4 ± 9.9 µM
- IC50 [12]: 3.5 ± 0.2 µM
- normal/tumor IC50 ratio ([12]; TS HT1080 #12): 0.64
